From paper PMC6389962 (Nature Communications, 2019)
Like-named read-outs stand apart in the source and are kept apart here. Starred links: 1 amine or outer side, 2 acyl side, 3 side chain; linkers in the order of their positions; H or OH if unused. Positions of bridges follow the written chain, without caps; N, C: chain ends. Residues, ends and D or L forms follow the SMILES beside them. Chains are numbered I, II in the order given. X1 = C[C@@H](CNC(=O)N[C@@H](C)CNC(=O)[*:2])NC(=O)NC[C@H](C)N[*:1]; X5 = C[C@@H](CNC(=O)N[C@@H](C)CNC(=O)[*:1])NC(=O)NC[C@H](C)N[*:2]

What was measured:
[1] = target: T1, mouse GLP-1 receptor (Mus musculus, UniProt O35659); settings: for Potency (%), percentage of potency compare to GLP-1-G^2: cAMP production, from EC50
T1 sequence (O35659 22-463): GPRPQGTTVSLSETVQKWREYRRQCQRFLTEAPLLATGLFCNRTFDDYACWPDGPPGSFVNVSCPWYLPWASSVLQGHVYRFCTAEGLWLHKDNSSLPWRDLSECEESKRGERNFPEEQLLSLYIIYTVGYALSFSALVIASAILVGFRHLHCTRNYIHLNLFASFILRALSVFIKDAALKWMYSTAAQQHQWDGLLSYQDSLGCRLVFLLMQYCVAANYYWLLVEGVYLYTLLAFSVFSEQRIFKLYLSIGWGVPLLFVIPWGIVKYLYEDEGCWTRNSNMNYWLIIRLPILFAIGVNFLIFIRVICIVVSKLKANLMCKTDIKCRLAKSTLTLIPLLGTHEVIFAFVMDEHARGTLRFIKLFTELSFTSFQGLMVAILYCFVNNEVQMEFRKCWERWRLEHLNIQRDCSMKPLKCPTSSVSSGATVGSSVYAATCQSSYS

[2] = target: T1, mouse GLP-1 receptor; assay: cell-based; settings: for Emax: 14: experiment 1
[3] = read-out: Top (best-fit value), variable slope four-parameter fit, unconstrained
[4] = read-out: Top (best-fit value), fit with BOTTOM = 0%

Row | Compound | LogEC50 (best-fit value) [1] | Potency (%), percentage of potency compare to GLP-1-G^2 [1] | EC50 [2] | Emax [2, 3] | Emax [2, 4]
1 | CC[C@H](C)[C@H](NC(=O)[C@H](Cc1ccccc1)NC(=O)[C@H](CCC(=O)O)NC(=O)[C@H](CCCCN)NC(=O)[C@H](C)NC(=O)[C@H](C)NC(=O)[C@H](CCC(N)=O)NC(=O)CNC(=O)[C@H](CCC(=O)O)NC(=O)[C@H](CC(C)C)NC(=O)NC[C@H](C)NC(=O)NC[C@H](C)NC(=O)NC[C@H](C)NC(=O)[C@H](CC(=O)O)NC(=O)[C@H](CO)NC(=O)[C@@H](NC(=O)[C@H](Cc1ccccc1)NC(=O)[C@@H](NC(=O)CNC(=O)[C@H](CCC(=O)O)NC(=O)CNC(=O)[C@@H](N)Cc1c[nH]cn1)[C@@H](C)O)[C@@H](C)O)C(=O)N[C@@H](C)C(=O)N[C@@H](Cc1c[nH]c2ccccc12)C(=O)N[C@@H](CC(C)C)C(=O)N[C@H](C(=O)N[C@@H](CCCCN)C(=O)NCC(=O)N[C@@H](CCCNC(=N)N)C(=O)NCC(N)=O)C(C)C [compound 3, GG2[A^uA^uA^u]^10-13] | -6.187 | 0.04% | 650 nM | 91.6% | –
2 | CC[C@H](C)[C@H](NC(=O)[C@H](Cc1ccccc1)NC(=O)[C@H](CCC(=O)O)NC(=O)[C@H](CCCCN)NC(=O)[C@H](C)NC(=O)[C@H](C)NC(=O)[C@H](CCC(N)=O)NC(=O)CNC(=O)[C@H](CCC(=O)O)NC(=O)NC[C@H](C)NC(=O)NC[C@H](C)NC(=O)NC[C@H](C)NC(=O)[C@@H](NC(=O)[C@H](CC(=O)O)NC(=O)[C@H](CO)NC(=O)[C@@H](NC(=O)[C@H](Cc1ccccc1)NC(=O)[C@@H](NC(=O)CNC(=O)[C@H](CCC(=O)O)NC(=O)CNC(=O)[C@@H](N)Cc1c[nH]cn1)[C@@H](C)O)[C@@H](C)O)C(C)C)C(=O)N[C@@H](C)C(=O)N[C@@H](Cc1c[nH]c2ccccc12)C(=O)N[C@@H](CC(C)C)C(=O)N[C@H](C(=O)N[C@@H](CCCCN)C(=O)NCC(=O)N[C@@H](CCCNC(=N)N)C(=O)NCC(N)=O)C(C)C [compound 4, GG2[A^uA^uA^u]^11-14] | -7.014 | 0.2% | 97 nM | 81.8% | –
3 | CC[C@H](C)[C@H](NC(=O)[C@H](Cc1ccccc1)NC(=O)[C@H](CCC(=O)O)NC(=O)[C@H](CCCCN)NC(=O)[C@H](C)NC(=O)[C@H](C)NC(=O)[C@H](CCC(N)=O)NC(=O)CNC(=O)NC[C@H](C)NC(=O)NC[C@H](C)NC(=O)NC[C@H](C)NC(=O)[C@H](CO)NC(=O)[C@@H](NC(=O)[C@H](CC(=O)O)NC(=O)[C@H](CO)NC(=O)[C@@H](NC(=O)[C@H](Cc1ccccc1)NC(=O)[C@@H](NC(=O)CNC(=O)[C@H](CCC(=O)O)NC(=O)CNC(=O)[C@@H](N)Cc1c[nH]cn1)[C@@H](C)O)[C@@H](C)O)C(C)C)C(=O)N[C@@H](C)C(=O)N[C@@H](Cc1c[nH]c2ccccc12)C(=O)N[C@@H](CC(C)C)C(=O)N[C@H](C(=O)N[C@@H](CCCCN)C(=O)NCC(=O)N[C@@H](CCCNC(=N)N)C(=O)NCC(N)=O)C(C)C [compound 6, GG2[A^uA^uA^u]^12-15] | – | < 0.01% | > 10000 nM | 6.19% | 6.08%
4 | CC[C@H](C)[C@H](NC(=O)[C@H](Cc1ccccc1)NC(=O)[C@H](CCC(=O)O)NC(=O)[C@H](CCCCN)NC(=O)[C@H](C)NC(=O)[C@H](C)NC(=O)[C@H](CCC(N)=O)NC(=O)NC[C@H](C)NC(=O)NC[C@H](C)NC(=O)NC[C@H](C)NC(=O)[C@H](CO)NC(=O)[C@H](CO)NC(=O)[C@@H](NC(=O)[C@H](CC(=O)O)NC(=O)[C@H](CO)NC(=O)[C@@H](NC(=O)[C@H](Cc1ccccc1)NC(=O)[C@@H](NC(=O)CNC(=O)[C@H](CCC(=O)O)NC(=O)CNC(=O)[C@@H](N)Cc1c[nH]cn1)[C@@H](C)O)[C@@H](C)O)C(C)C)C(=O)N[C@@H](C)C(=O)N[C@@H](Cc1c[nH]c2ccccc12)C(=O)N[C@@H](CC(C)C)C(=O)N[C@H](C(=O)N[C@@H](CCCCN)C(=O)NCC(=O)N[C@@H](CCCNC(=N)N)C(=O)NCC(N)=O)C(C)C [compound 7, GG2[A^uA^uA^u]^13-16] (I: QAAKEFIAWLVKGRG-NH2 / II: H-HGEGTFTSDVSS; linker I:N-II:C via X5) | – | – | > 10000 nM | ~208% | –
5 | CC[C@H](C)[C@H](NC(=O)[C@H](Cc1ccccc1)NC(=O)[C@H](CCC(=O)O)NC(=O)[C@H](CCCCN)NC(=O)[C@H](C)NC(=O)[C@H](C)NC(=O)NC[C@H](C)NC(=O)NC[C@H](C)NC(=O)NC[C@H](C)NC(=O)[C@H](Cc1ccc(O)cc1)NC(=O)[C@H](CO)NC(=O)[C@H](CO)NC(=O)[C@@H](NC(=O)[C@H](CC(=O)O)NC(=O)[C@H](CO)NC(=O)[C@@H](NC(=O)[C@H](Cc1ccccc1)NC(=O)[C@@H](NC(=O)CNC(=O)[C@H](CCC(=O)O)NC(=O)CNC(=O)[C@@H](N)Cc1c[nH]cn1)[C@@H](C)O)[C@@H](C)O)C(C)C)C(=O)N[C@@H](C)C(=O)N[C@@H](Cc1c[nH]c2ccccc12)C(=O)N[C@@H](CC(C)C)C(=O)N[C@H](C(=O)N[C@@H](CCCCN)C(=O)NCC(=O)N[C@@H](CCCNC(=N)N)C(=O)NCC(N)=O)C(C)C [compound 8, GG2[A^uA^uA^u]^14-17] (I: AAKEFIAWLVKGRG-NH2 / II: H-HGEGTFTSDVSSY; linker I:N-II:C via X5) | -6.452 | 0.07% | 353 nM | 73.4% | –
6 | CC[C@H](C)[C@H](NC(=O)[C@H](Cc1ccccc1)NC(=O)[C@H](CCC(=O)O)NC(=O)[C@H](CCCCN)NC(=O)[C@H](C)NC(=O)NC[C@H](C)NC(=O)NC[C@H](C)NC(=O)NC[C@H](C)NC(=O)[C@H](CC(C)C)NC(=O)[C@H](Cc1ccc(O)cc1)NC(=O)[C@H](CO)NC(=O)[C@H](CO)NC(=O)[C@@H](NC(=O)[C@H](CC(=O)O)NC(=O)[C@H](CO)NC(=O)[C@@H](NC(=O)[C@H](Cc1ccccc1)NC(=O)[C@@H](NC(=O)CNC(=O)[C@H](CCC(=O)O)NC(=O)CNC(=O)[C@@H](N)Cc1c[nH]cn1)[C@@H](C)O)[C@@H](C)O)C(C)C)C(=O)N[C@@H](C)C(=O)N[C@@H](Cc1c[nH]c2ccccc12)C(=O)N[C@@H](CC(C)C)C(=O)N[C@H](C(=O)N[C@@H](CCCCN)C(=O)NCC(=O)N[C@@H](CCCNC(=N)N)C(=O)NCC(N)=O)C(C)C [compound 10, GG2[A^uA^uA^u]^15-18] (I: H-HGEGTFTSDVSSYL / II: AKEFIAWLVKGRG-NH2; linker I:C-II:N via X1) | -6.91 | 0.2% | 123 nM | 61.5% | –
7 | CC[C@H](C)[C@H](NC(=O)NC[C@H](C)NC(=O)NC[C@H](C)NC(=O)NC[C@H](C)NC(=O)[C@H](C)NC(=O)[C@H](CCC(N)=O)NC(=O)CNC(=O)[C@H](CCC(=O)O)NC(=O)[C@H](CC(C)C)NC(=O)[C@H](Cc1ccc(O)cc1)NC(=O)[C@H](CO)NC(=O)[C@H](CO)NC(=O)[C@@H](NC(=O)[C@H](CC(=O)O)NC(=O)[C@H](CO)NC(=O)[C@@H](NC(=O)[C@H](Cc1ccccc1)NC(=O)[C@@H](NC(=O)CNC(=O)[C@H](CCC(=O)O)NC(=O)CNC(=O)[C@@H](N)Cc1c[nH]cn1)[C@@H](C)O)[C@@H](C)O)C(C)C)C(=O)N[C@@H](C)C(=O)N[C@@H](Cc1c[nH]c2ccccc12)C(=O)N[C@@H](CC(C)C)C(=O)N[C@H](C(=O)N[C@@H](CCCCN)C(=O)NCC(=O)N[C@@H](CCCNC(=N)N)C(=O)NCC(N)=O)C(C)C [compound 15, GG2[A^uA^uA^u]^19-22] (I: H-HGEGTFTSDVSSYLEGQA / II: IAWLVKGRG-NH2; linker I:C-II:N via X1) | – | – | > 10000 nM | 92.7% | ~538%
